Values quoted from earlier work as cited in patent publication US20150366901A1, “Methods of Treating Heart Failure” (The Trustees of the University of Pennsylvania, priority 2013, published 2015).

How the values were obtained:
[1] = nitrite formed from nitrate by oral cavity commensal bacteria
healthy volunteers = conditions: ingestion of 8 mmol, 3 hours post-ingestion
old mice = conditions: supplementation for 3 weeks, 478 AU before, young counterparts 332 AU

## O=NO [nitrite]
[1]
  oral bioavailability: > 95%

## inorganic nitrate
Healthy volunteers
  aortic pulse wave velocity: decrease in aortic pulse wave velocity

## O=[N+]([O-])O [nitrate]
Circulating nitrate
  half-life in plasma: ~5 h
Concentrated in saliva, rest excreted by the kidneys
  share of circulating nitrate actively taken up by the salivary glands: Up to 25%

## O=NO [sodium nitrite]
Old mice
  aortic pulse wave velocity (PWV) after supplementation: 384 AU
